Source: PMC2151668 (The Journal of General Physiology, 2007)
Read-outs that look alike come from different tables or passages of the source. Peptide text beside a SMILES is read from it.

Legend:
[1] = Acrylamide quenching of W30 tryptophan fluorescence; format: physicochemical
Kv2.1 channel = target: T1, Kv2.1 channel (Rattus norvegicus, UniProt P15387, A366D/I383M/K360G/K386V/S367A/T359S/Y384T); test: Two-electrode voltage-clamp recording of Kv2.1 expressed in oocytes; format: cell-based
T1 sequence (P15387 1-857 T359S/K360G/A366D/S367A/I383M/Y384T/K386V): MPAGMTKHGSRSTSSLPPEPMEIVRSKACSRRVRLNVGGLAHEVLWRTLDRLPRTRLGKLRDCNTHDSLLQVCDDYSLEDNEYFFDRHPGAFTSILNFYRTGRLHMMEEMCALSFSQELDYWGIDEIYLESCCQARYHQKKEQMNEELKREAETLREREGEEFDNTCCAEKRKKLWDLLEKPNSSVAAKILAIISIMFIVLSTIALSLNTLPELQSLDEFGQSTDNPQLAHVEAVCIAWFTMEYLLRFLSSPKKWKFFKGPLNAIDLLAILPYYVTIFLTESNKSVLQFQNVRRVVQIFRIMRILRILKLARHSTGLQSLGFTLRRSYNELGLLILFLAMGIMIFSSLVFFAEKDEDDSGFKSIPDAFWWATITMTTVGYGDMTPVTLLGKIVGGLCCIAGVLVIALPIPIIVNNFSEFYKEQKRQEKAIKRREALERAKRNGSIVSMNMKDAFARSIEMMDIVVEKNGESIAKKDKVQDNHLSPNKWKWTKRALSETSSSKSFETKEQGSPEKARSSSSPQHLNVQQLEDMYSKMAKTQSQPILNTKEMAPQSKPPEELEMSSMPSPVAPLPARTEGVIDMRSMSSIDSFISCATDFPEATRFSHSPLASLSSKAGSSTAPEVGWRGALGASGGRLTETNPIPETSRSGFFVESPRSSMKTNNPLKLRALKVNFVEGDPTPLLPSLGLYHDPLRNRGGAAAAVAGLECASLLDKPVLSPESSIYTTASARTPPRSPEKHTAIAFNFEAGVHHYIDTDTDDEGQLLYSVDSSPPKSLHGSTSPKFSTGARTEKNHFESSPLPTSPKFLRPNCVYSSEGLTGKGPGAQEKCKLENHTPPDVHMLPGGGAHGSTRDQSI

[2] = for F/F0 max: 1:1 POPG:POPC LUVs; for F/F0 max / λmax: HEB, 100 mM K+
[3] = toxin:lipid 2 μM:0.9 mM, HEB pH 7, n = 3

CC(C)C[C@@H]1NC(=O)[C@H](Cc2c[nH]cn2)NC(=O)[C@H](CCCCN)NC(=O)[C@@H]2CSSC[C@H](NC(=O)[C@@H](N)CCC(=O)O)C(=O)N[C@@H](CCCNC(=N)N)C(=O)N[C@@H](Cc3ccc(O)cc3)C(=O)N[C@@H](CC(C)C)C(=O)N[C@@H](Cc3ccccc3)C(=O)NCC(=O)NCC(=O)N[C@H]3CSSC[C@H](NC(=O)CNC1=O)C(=O)N[C@@H](CCCCN)C(=O)N[C@@H](Cc1ccccc1)C(=O)N[C@@H](CCCNC(=N)N)C(=O)N[C@@H](CC(=O)O)C(=O)N[C@@H](CCCCN)C(=O)N[C@@H](Cc1ccc(O)cc1)C(=O)N[C@H](C(=O)N[C@@H](C)C(=O)N[C@@H](Cc1c[nH]c4ccccc14)C(=O)N[C@@H](CC(=O)O)C(=O)N[C@@H](Cc1ccccc1)C(=O)N[C@H](C(=O)N[C@@H](Cc1ccccc1)C(=O)N[C@@H](CO)C(=O)O)[C@@H](C)O)CSSC[C@H](NC(=O)[C@H](CC(=O)O)NC(=O)[C@H](CO)NC(=O)[C@H]([C@@H](C)O)NC(=O)[C@H]([C@@H](C)O)NC(=O)[C@H](CCCCN)NC3=O)C(=O)N2 [Hanatoxin] (HELM PEPTIDE1{E.C.R.Y.L.F.G.G.C.K.T.T.S.D.C.C.K.H.L.G.C.K.F.R.D.K.Y.C.A.W.D.F.T.F.S}$PEPTIDE1,PEPTIDE1,2:R3-16:R3|PEPTIDE1,PEPTIDE1,9:R3-21:R3|PEPTIDE1,PEPTIDE1,15:R3-28:R3$$$V2.0; N-terminus and C-terminus assumed)
Stern-Volmer constant (KSV), Solution ([1]; toxin 2 μM in solution, no lipid vesicles, n = 3): 48 ± 3 M⁻¹
Stern-Volmer constant (KSV), POPC, HEB [1, 3]: 10 ± 0.5 M⁻¹
Stern-Volmer constant (KSV), POPC:POPG, HEB [1, 3]: 7 ± 0.1 M⁻¹
Stern-Volmer constant (KSV), POPC:POPG, PB ([1]; toxin:lipid 2 μM:0.9 mM, PB (10 mM HEPES, 100 mM KCl, 1 mM MgCl2, 0.3 mM CaCl2, pH 7.6), n = 3): 18 ± 0.2 M⁻¹
Stern-Volmer constant (KSV), POPC, PB ([1]; toxin:lipid 2 μM:0.9 mM, PB pH 7.6, n = 3): 23 ± 0.7 M⁻¹
effect on Kv2.1 channel opening (Kv2.1 channel; 4 μM hanatoxin in external solution, oocytes, n = 3): pronounced inhibition of opening at negative voltages
time for channel activity to recover to control values after toxin removal (Kv2.1 channel; control (untreated) oocytes, 500 nM hanatoxin): ~1,000 s
F/F0 max ([2]; 1 mM free Ca2+, n = 3): 2.1 ± 0.1
F/F0 max ([2]; pH 7, n = 3): 2.0 ± 0.02
λmax ([2]; +POPG:POPC vesicles, 1 mM free Ca2+): 350.0 nm
λmax ([2]; +POPG:POPC vesicles, pH 7): 344.3 nm
Kx ([2]; as printed in legend, anionic vesicles, HEB with 100 mM KCl, n = 3): (5.3 ± 0.03) × 10^5
λmax ([2]; toxin in solution without lipid, 1 mM free Ca2+): 353.7 nm
blue shift in fluorescence emission spectrum ([2]; upon addition of 1:1 POPC:POPG vesicles (2.4 mM), HEB pH 7): 10.9 nm
